Source: publication PMC4552634, “A New Set of Chemical Starting Points with Plasmodium falciparum Transmission-Blocking Potential for Antimalarial Drug Discovery” (PLoS ONE, 2015)
Read-outs that look alike come from different tables or passages of the source.

How the values were obtained:
[1] = system: luciferase reaction (BacTiter-Glo); experiment: Interference assay (inhibition of the BacTiter-Glo luciferase reaction); assay type: biochemical; parameters: concentration or dose not given beside the values; settings: ATP interference assay
Procedure: To discard possible false-positive results, we performed an interference assay in parallel. […] […]. The ATP solution was made by dissolving ATP powder (ATP standard from the ATPlite 1 step assay kit, reference 6016731, Perkin Elmer) in culture medium. The positive control used was the Luciferase Inhibitor I Calbiochem (Merck, 119113) at 100 μM.

[2] = system: HepG2 cells; experiment: Cytotoxicity in HepG2 cells (intracellular ATP, ATPlite, 48 h); assay type: cell-based, human; settings: HepG2 cells; IC50 per ratio column head; unit inferred
[3] = system: P. falciparum stage V gametocytes; experiment: Gametocytocidal ATP bioluminescence assay (single point 5 μM and 1 μM, dose-response); assay type: cell-based, Plasmodium falciparum; settings: for Ratio IC50 HepG2/IC50 P. falciparum: IC50 HepG2 divided by IC50 P. falciparum gametocytes
[4] = system: P. falciparum asexual stages; settings: asexual stages; TCAMS data; read-out: IC50 asexual; cited from earlier work
[5] = system: P. falciparum stage V gametocytes; experiment: microbe, parasite or virus in culture; parameters: BacTiter-Glo ATP luminescence viability of purified stage V gametocytes in 384-well plates, per cent inhibition versus DMSO; settings: Plasmodium falciparum, 48 h, read-out: % Inhibition
[6] = P. falciparum gametocytes, average, read-out: IC50 Pf Gametocytes average, IC50 (µM) average
[7] = sexual stages (gametocytes), dose-response, read-out: IC50 sexual

| Compound | % Control luminiscence [1] | IC50 [2] | Ratio IC50 HepG2/IC50 P. falciparum [3] | IC50 [3, 6] | IC50 [3, 7] | IC50 [4] | inhibition at 5 µM [5] |
| --- | --- | --- | --- | --- | --- | --- | --- |
| Cc1occc1C(=O)Nc1nc(-c2ccccn2)nc2ccsc12 [TCMDC-135244] | 99% | < 1560 nM | <5 | 0.3 µM | 0.303 µM | 899 nM | – |
| COc1ccc2c(NN=Cc3ccc(OC)c4ccccc34)cc(C)nc2c1 [TCMDC-142218] | 97% | 7860 nM | 10 | 0.77 µM | 0.773 µM | 599 nM | 97.5% |
| CCc1[nH]nc(C(=O)NC2CCN(CC3(c4ccc(OC)cc4)CCCCC3)CC2)c1C [TCMDC-124840] | 100% | > 25000 nM | – | > 10 µM | – | 892 nM | – |
| CN(C)S(=O)(=O)c1cc(-c2ccc3nccc(-c4cccc(S(N)(=O)=O)c4)c3c2)cnc1N [TCMDC-134230] | 100% | 14800 nM | <1.5 | > 10 µM | – | 251 nM | – |
| Cc1cccc2[nH]cc(C3CCN(CC4CCC(NC(=O)/C=C/c5ccc(Cl)c(Cl)c5)CC4)CC3)c12 (stereo not drawn) [TCMDC-140137] | 100% | 2950 nM | 2 | 1.45 µM | 1.45 µM | 163 nM | – |
| CCN(CC)CCCn1c(N)c(-c2nc3ccccc3[nH]2)c2nc(C#N)c(C#N)nc21 [TCMDC-123680] | 100% | 8700 nM | 62 | 0.14 µM | – | 267 nM | – |
| Cc1cc(NCCCCCCNc2cc(C)nc3c(C)cccc23)c2cccc(C)c2n1 [TCMDC-125702] | 100% | > 25000 nM | >7.5 | 3.32 µM | 3.31 µM | 406 nM | – |

Second part, led by results:

| % Control luminiscence [1] | Compound | IC50 [2] | Ratio IC50 HepG2/IC50 P. falciparum [3] | IC50 [3, 6] | IC50 [3, 7] | IC50 [4] | inhibition at 5 µM [5] |
| --- | --- | --- | --- | --- | --- | --- | --- |
| 100% | O=C(COc1ccccc1)N(Cc1ccc(-c2ccc(CNC3Cc4ccccc4C3)cc2)cc1)C1CCNCC1 [TCMDC-141450] | 7800 nM | 8 | 0.99 µM | 0.987 µM | 1010 nM | – |
| 93% | COC(=O)c1sc(-c2ccc(Cl)cc2)cc1N(CCCN1CCC(N2CCCCC2)CC1)S(=O)(=O)c1ccc(C)cc1 [TCMDC-135561] | 4370 nM | 1.3 | 3.36 µM | 3.37 µM | 744 nM | – |
| 100% | O=C(/C=C/c1ccc(Cl)c(Cl)c1)N1CCC(CCN2CCC(c3c[nH]c4cnccc34)CC2)CC1 [TCMDC-140136] | 7210 nM | 36 | 0.2 µM | – | 119 nM | – |
| 95% | CN1CCC(C(=O)N(Cc2ccc(-c3ccc(CNCCc4ccccc4)cn3)cc2)C2CCN(Cc3ccccc3)CC2)CC1 [TCMDC-141552] | 9270 nM | 10 | 0.9 µM | 0.897 µM | 787 nM | – |
| 98% | Cc1cccc(-c2nc(Nc3ccncc3)c3cc(N(C)C)ccc3n2)n1 [TCMDC-135308] | > 25000 nM | >9 | 2.66 µM | – | 710 nM | – |
| 100% | Cc1ccc(C(=O)Nc2ccc(Nc3ccnc4cc(-c5ccccn5)ccc34)cc2O)cc1 [TCMDC-138205] | 3110 nM | 6.48 | 0.48 µM | – | 111 nM | – |
| 100% | CN1CCN(CCCNCc2cccc(Nc3nccc(Nc4ccc(Oc5ccccc5)cc4)n3)c2)CC1 [TCMDC-138616] | 5170 nM | 16 | 0.32 µM | – | 765 nM | – |
| 95% | CN1CCN(CC2(Nc3nccc(NCCc4cn(C)c5ccccc45)n3)CCCCC2)CC1 [TCMDC-135122] | 6940 nM | 10 | 0.7 µM | 0.697 µM | 1810 nM | – |
| 100% | CS(=O)(=O)c1cccc2sc(N3CCN(C(=O)c4ccc([N+](=O)[O-])o4)CC3)nc12 [TCMDC-124930] | 18800 nM | <1.9 | > 10 µM | – | 1240 nM | – |
| 100% | CC(C)CNCc1ccc(-c2ccc(CN(CCCN3CCN(C)CC3)C(=O)CCC3CCCC3)cc2)cc1 [TCMDC-140559] | 5390 nM | 10 | 0.54 µM | – | 1060 nM | – |
